Reference: patent publication US6849612B2, “Oligonucleotide modulation of cell adhesion” (ISIS Pharmaceuticals, Inc., priority 1993, dated 2005)
Strand notation (5' to 3'): a small letter for the sugar, then the base; units joined by * are phosphorothioate-linked, units joined directly phosphodiester-linked; [ ] holds rarer units or linkages, { } end groups; capitals alone tell only the bases. d = 2'-deoxy (DNA)

Experiments:
[1] = tested on: corneal allograft rejection; assay: Rat corneal allograft rejection (ACI donor to Lewis recipient); type: in vivo
[2] = tested on: adherence of HL-60 cells to human umbilical vein endothelial cells; assay: Cell adherence assay: DMSO differentiated HL-60 cells to TNF treated HUVEC; type: cell-based; conditions: TNF-α stimulated HUVEC, Example 11; control 19%
Experimental: Target cells are grown as a monolayer in a multiwell plate, treated with oligonucleotide followed by cytokine. The adhering cells are then added to the monolayer cells and incubated for 30 to 60 minutes at 37° C. and washed to remove nonadhering cells. Cells adhering to the monolayer may be determined either by directly counting the adhering cells or prelabeling the cells with a radioisotope such as ^51Cr and quantitating the radioactivity associated with the monolayer as described. Dustin and Springer, J. Cell Biol. 1988, 107, 321-331. Antisense oligonucleotides may target either ICAM-1, VCAM-1 or ELAM-1 in the assay.
An example of the effects of antisense oligonucleotides targeting ICAM-1 mRNA on the adherence of DMSO differentiated HL-60 cells to tumor necrosis factor treated human umbilical vein endothelial cells is shown in FIG. 7. Human umbilical vein endothelial cells were grown to 80% confluence in 12 well plates. The cells were treated with 2 μM oligonucleotide diluted in Opti-MEM containing 8 μM DOTMA for 4 hours at 37° C. The medium was removed and replaced with fresh endothelial cell growth medium (EGM-UV) containing 2 μM of the indicated oligonucleotide and incubated 4 hours at 37° C. Tumor necrosis factor, 1 ng/ml, was added to cells as indicated and cells incubated for an additional 19 hours. The cells were washed once with EGM-UV and 1.6×10^6 HL-60 cells differentiated for 4 days with 1.3% DMSO added. The cells were allowed to attach for 1 hour at 37° C. and gently washed 4 times with Dulbecco's phosphate-buffered saline (D-PBS) warmed to 37° C. Adherent cells were detached from the monolayer by addition of 0.25 ml of cold (4EC) phosphate-buffered saline containing 5 mM EDTA and incubated on ice for 5 minutes. The number of cells removed by treatment with EDTA was determined by counting with a hemocytometer. Endothelial cells detached from the monolayer by EDTA treatment could easily be distinguished from HL-60 cells by morphological differences. In the absence of tumor necrosis factor, 3% of the HL-60 cells bound to the endothelial cells. Treatment of the endothelial cell monolayer with 1 ng/ml tumor necrosis factor increased the number of adhering cells to 59% of total cells added (FIG. 7).
Human umbilical vein endothelial (HUVEC) cells were grown and treated with oligonucleotides as in Example 4. Cells were treated with either ISIS 1939, ISIS 1940, or the control oligonucleotide ISIS 1821 for 4 hours, then stimulated with TNF-α for 20 hours. Basal HUVEC minimally bound HL-60 cells, while TNF-stimulated HUVEC bound 19% of the total cells added. Pretreatment of the HUVEC monolayer with 0.3 ìM ISIS 1939 reduced the adherence of HL-60 cells to basal levels, as shown in FIG. 11.

[3] = tested on: complementary DNA sequences (ICAM-1 target sites); assay: Tm of oligonucleotide hybridized to complementary DNA; type: binding, human; conditions: 4 μM each strand, 100 mM Na+, 10 mM phosphate, 0.1 mM EDTA, pH 7.0; phosphorothioate vs complementary phosphodiester DNA
Text: The antisense oligonucleotides (synthesized as phosphorothioates) were hybridized to their complementary DNA sequences (synthesized as phosphodiesters). […] Tm's and free energies of duplex formation were obtained from fits of data to a two-state model with linear sloping baselines ([…]. and D. H. […] Results are averages of at least three experiments.

[4] = tested on: ICAM-1; assay: ELISA screening for ICAM-1 expression in interleukin-1β-stimulated cells (HUVEC and A549); type: cell-based, human; conditions: interleukin-1β-stimulated cells, two cell lines (HUVEC, A549)
[5] = tested on: ICAM-1; assay: Immunoprecipitation of 35S-labelled ICAM-1 from A549 cells; type: cell-based, human; conditions: 1 μM oligonucleotide, interleukin-1β
Experimental: The specificity of the antisense oligonucleotides ISIS 1570 and ISIS 1939 for ICAM-1 was evaluated by immunoprecipitation of ^35S-labelled proteins. A549 cells were grown to confluence in 25 cm^2 tissue culture flasks and treated with antisense oligonucleotides as described in Example 4. The cells were stimulated with interleukin-1β for 14 hours, washed with methionine-free DMEM plus 10% dialyzed fetal calf serum, and incubated for 1 hour in methionine-free medium containing 10% dialyzed fetal calf serum, 1 μM oligonucleotide and interleukin-1β as indicated. ^35S-Methionine/cysteine mixture (Tran^35S-label, purchased from ICN, Costa Mesa, Calif.) was added to the cells to an activity of 100 μCi/ml and the cells were incubated an additional 2 hours. Cellular proteins were extracted by incubation with 50 mM Tris-HCl pH 8.0, 150 mM NaCl, 1.0% NP-40, 0.5% deoxycholate and 2 mM EDTA (0.5 ml per well) at 4° C. for 30 minutes. The extracts were clarified by centrifugation at 18,000×g for 20 minutes. The supernatants were preadsorbed with 200 μl protein G-Sepharose beads (Bethesda Research Labs, Bethesda Md.) for 2 hours at 4° C., divided equally and incubated with either 5 μg ICAM-1 monoclonal antibody (purchased from AMAC Inc., Westbrook Me.) or HLA-A, B antibody (W6/32, produced by murine hybridoma cells obtained from the American Type Culture Collection, Bethesda, Md.) for 15 hours at 4° C. Immune complexes were trapped by incubation with 200 μl of a 50% suspension of protein G-Sepharose (v/v) for 2 hours at 4° C., washed 5 times with lysis buffer and resolved on an SDS-polyacrylamide gel. Proteins were detected by autoradiography.

[6] = tested on: ICAM-1; assay: ELISA of ICAM-1 cell surface expression in oligonucleotide-pretreated, cytokine-stimulated HUVEC; type: cell-based, human; conditions: HUVEC, interleukin-1β; concentration not given

## ISIS 9125: rat ICAM-1 antisense, AGGGCCACTGCTCGTCCACA, all 2′-deoxyphosphorothioate (SEQ ID NO: 86) (antisense dA*dG*dG*dG*dC*dC*dA*dC*dT*dG*dC*dT*dC*dG*dT*dC*dC*dA*dC*dA)
[1]; day 3 post-surgery
  corneal edema vs OPTISOL alone group: more corneal edema
  grading for cornea opacity and neovascularization, better than OPTISOL alone group: 50%
[1]; donor corneas incubated 24 hours in OPTISOL plus 400 μg/ml oligonucleotide, OPTISOL alone 4.80 days
  average days to rejection: 6.33 days
[1]; donor corneas incubated 24 hours in OPTISOL plus oligonucleotide
  range of days to rejection: 6 to 10 days
[1]; over the 24 hour OPTISOL incubation control group
  increase of days to rejection: 25%

## ISIS 1940: P=S, human ICAM-1 3′-Untranslated (2975-2994), polyadenylation signal, SEQ ID NO 16, TTGAGAAAGCTTTATTAACT (antisense dT*dT*dG*dA*dG*dA*dA*dA*dG*dC*dT*dT*dT*dA*dT*dT*dA*dA*dC*dT)
[2]
  percentage of HL-60 cells adhering: 9%
[3]
  Tm: < 50 °C
[4]
  inhibition of ICAM-1 expression, relative activity in words: did not inhibit ICAM-1 expression
[5]
  ICAM-1 synthesis: did not significantly reduce ICAM-1 synthesis

## ISIS 1558: P=O oligonucleotide, human ICAM-1 AUG Codon (64-81), SEQ ID NO 1, TGGGAGCCATAGCGAGGC (unmodified DNA)
[6]
  inhibition of ICAM-1 expression: did not inhibit expression of ICAM-1
